Source: ChEMBL document CHEMBL4811306, “Fused benzo[1,3]thiazine-1,2,3-triazole hybrids: Microwave-assisted one-pot synthesis, in vitro antibacterial, antibiofilm, and in silico ADME studies” (2021)
Converted amounts (≈) assume the structure as drawn.

Experiments:
Format in all cases: functional
Bacillus subtilis [1] = assay: Antibiofilm activity against Bacillus subtilis MTCC121 assessed as inhibition of biofilm formation
Pseudomonas aeruginosa [2] = assay: Antibiofilm activity against Pseudomonas aeruginosa assessed as inhibition of biofilm formation
Klebsiella pneumoniae = assay: Antibacterial activity against Klebsiella pneumoniae assessed as inhibition of bacterial growth by standard broth microdilution method
Escherichia coli [3] = assay: Antibacterial activity against Escherichia coli MTCC739 assessed as inhibition of bacterial growth by standard broth microdilution method
[4] = tested on: Staphylococcus epidermidis; assay: Antibacterial activity against Staphylococcus epidermidis MTCC435 assessed as inhibition of bacterial growth by standard broth microdilution method
Pseudomonas aeruginosa [5] = assay: Antibacterial activity against Pseudomonas aeruginosa assessed as inhibition of bacterial growth by standard broth microdilution method
Bacillus subtilis [6] = assay: Antibacterial activity against Bacillus subtilis MTCC121 assessed as inhibition of bacterial growth by standard broth microdilution method
Staphylococcus aureus [7] = assay: Antibacterial activity against Staphylococcus aureus MTCC96 assessed as inhibition of bacterial growth by standard broth microdilution method
[8] = tested on: Staphylococcus epidermidis; assay: Antibiofilm activity against Staphylococcus epidermidis MTCC435 assessed as inhibition of biofilm formation
Staphylococcus aureus [9] = assay: Antibiofilm activity against Staphylococcus aureus MTCC96 assessed as inhibition of biofilm formation
Escherichia coli [10] = assay: Antibiofilm activity against Escherichia coli MTCC739 assessed as inhibition of biofilm formation
Bacillus subtilis [11] = assay: Potency index, ratio of ciprofloxacin MIC to test compound MIC for antibacterial activity against Bacillus subtilis MTCC121
[12] = tested on: Staphylococcus epidermidis; assay: Potency index, ratio of ciprofloxacin MIC to test compound MIC for antibacterial activity against Staphylococcus epidermidis MTCC435

Compound | BIC (Bacillus subtilis [1]) [µg/mL] | BIC (Pseudomonas aeruginosa [2]) [µg/mL] | MIC (Klebsiella pneumoniae) [µg/mL] | MIC (Escherichia coli [3]) [µg/mL] | MIC [4] [µg/mL] | MIC (Pseudomonas aeruginosa [5]) [µg/mL] | MIC (Bacillus subtilis [6]) [µg/mL] | MIC (Staphylococcus aureus [7]) [µg/mL] | BIC [8] [µg/mL] | BIC (Staphylococcus aureus [9]) [µg/mL] | BIC (Escherichia coli [10]) [µg/mL] | Ratio (Bacillus subtilis [11]) | Ratio [12]
Clc1ccccc1-c1nnn2c1-c1ccccc1SC2 | 26.1 | 48 | > 50 | > 50 | 25 (≈ 83.4 µM) | 50 (≈ 167 µM) | 12.5 (≈ 41.7 µM) | 6.25 (≈ 20.8 µM) | 21.2 | 10.7 | – | – | –
COc1ccc(-c2nnn3c2-c2ccccc2SC3)cc1 | – | – | > 50 | > 50 | > 50 | > 50 | 50 (≈ 169 µM) | > 50 | – | – | – | – | –
Cc1cccc(-c2nnn3c2-c2ccccc2S(=O)(=O)C3)c1 | – | – | > 50 | > 50 | 50 (≈ 161 µM) | > 50 | 50 (≈ 161 µM) | > 50 | – | – | – | – | –
COc1cccc(-c2nnn3c2-c2ccccc2S(=O)(=O)C3)c1 | 3.5 | 47.3 | 25 (≈ 76.4 µM) | 50 (≈ 153 µM) | 12.5 (≈ 38.2 µM) | 50 (≈ 153 µM) | 6.25 (≈ 19.1 µM) | 6.25 (≈ 19.1 µM) | 24.8 | 4.2 | 52.3 | – | –
COc1cccc(-c2nnn3c2-c2ccccc2SC3)c1 | – | – | > 50 | 50 (≈ 169 µM) | 50 (≈ 169 µM) | > 50 | 25 (≈ 84.6 µM) | 25 (≈ 84.6 µM) | – | – | – | – | –
O=S1(=O)Cn2nnc(-c3ccccc3)c2-c2ccccc21 | – | – | > 50 | > 50 | 25 (≈ 84.1 µM) | > 50 | 50 (≈ 168 µM) | 25 (≈ 84.1 µM) | – | – | – | – | –
O=S1(=O)Cn2nnc(-c3ccc(Br)cc3)c2-c2ccccc21 | 23.9 | 20.4 | 50 (≈ 133 µM) | 6.25 (≈ 16.6 µM) | 50 (≈ 133 µM) | 25 (≈ 66.4 µM) | 12.5 (≈ 33.2 µM) | 25 (≈ 66.4 µM) | 57.6 | 28.1 | 10.9 | – | –
Cc1cccc(-c2nnn3c2-c2ccccc2SC3)c1 | – | – | > 50 | > 50 | > 50 | > 50 | > 50 | > 50 | – | – | – | – | –
O=S1(=O)Cn2nnc(-c3ccccc3Cl)c2-c2ccccc21 | 4.15 | 22.8 | 50 (≈ 151 µM) | 50 (≈ 151 µM) | 3.12 (≈ 9.4 µM) | 25 (≈ 75.4 µM) | 3.12 (≈ 9.4 µM) | 6.25 (≈ 18.8 µM) | 2.94 | 5.88 | 48 | 2 | 2
Cc1ccc(-c2nnn3c2-c2ccccc2S(=O)(=O)C3)cc1 | – | – | 50 (≈ 161 µM) | 25 (≈ 80.3 µM) | 25 (≈ 80.3 µM) | 50 (≈ 161 µM) | 25 (≈ 80.3 µM) | 50 (≈ 161 µM) | – | – | – | – | –
Brc1ccc(-c2nnn3c2-c2ccccc2SC3)cc1 | – | – | 50 (≈ 145 µM) | 25 (≈ 72.6 µM) | > 50 | > 50 | > 50 | 50 (≈ 145 µM) | – | – | – | – | –
COc1ccc(-c2nnn3c2-c2ccccc2S(=O)(=O)C3)cc1 | – | – | > 50 | > 50 | 25 (≈ 76.4 µM) | > 50 | 25 (≈ 76.4 µM) | 50 (≈ 153 µM) | – | – | – | – | –
Cc1ccc(-c2nnn3c2-c2ccccc2SC3)cc1 | – | – | 50 (≈ 179 µM) | > 50 | 50 (≈ 179 µM) | 50 (≈ 179 µM) | 50 (≈ 179 µM) | > 50 | – | – | – | – | –
O=C(O)c1cn(C2CC2)c2cc(N3CCNCC3)c(F)cc2c1=O [CIPROFLOXACIN] | 5.5 | 2.75 | 3.12 (≈ 9.42 µM) | – | 6.25 (≈ 18.9 µM) | 1.56 (≈ 4.71 µM) | 6.25 (≈ 18.9 µM) | 3.12 (≈ 9.42 µM) | 2.24 | 4.88 | 4.29 | – | –
